Calls of active or inactive are those of the source. The rule behind the calls is not given here.
Legend:
[1] = Drug metabolism in human BSMC cells assessed as intracellular H2S release by measuring increase in fluorescence index at 100 uM measured every 5 mins for 60 mins by WSP-1 dye based spectrofluorometric analysis; type: ADME, cell-based; conditions: 1 h
[2] = Drug metabolism in human BSMC cells assessed as intracellular H2S release by measuring increase in fluorescence index at 300 uM measured every 5 mins for 60 mins by WSP-1 dye based spectrofluorometric analysis; type: ADME, cell-based; conditions: 1 h
[3] = test system: RBL-2H3; assay: (§1) Inhibition of DNP-HAS-stimulated mast cell degranulation in rat RBL-2H3 cells assessed as reduction in beta-hexosaminidase release at 100 uM incubated for 5 mins followed by DNP-HAS stimulation for 1 hr by multiplate reader analysis; type: functional; conditions: time 65.0 min
[4] = test system: RBL-2H3; assay: (§2) Inhibition of DNP-HAS-stimulated mast cell degranulation in rat RBL-2H3 cells assessed as reduction in beta-hexosaminidase release at 300 uM incubated for 5 mins followed by DNP-HAS stimulation for 1 hr by multiplate reader analysis; type: functional; conditions: time 65.0 min
[5] = (§3) Bronchodilatory activity in human BSMC cells assessed as induction of membrane hyperpolarization at 100 uM by spectrofluorometric analysis relative to NS1619; type: functional
[6] = (§4) Bronchodilatory activity in human BSMC cells assessed as induction of membrane hyperpolarization at 300 uM by spectrofluorometric analysis relative to NS1619; type: functional
[7] = as §1; type: functional; conditions: RBL-2H3, 1.083 h, time 65 min
[8] = as §2; type: functional; conditions: RBL-2H3, 1.083 h, time 65 min
[9] = test system: BSMC; assay: as §3; type: functional
[10] = test system: BSMC; assay: as §4; type: functional
[11] = Inhibition of DNP-HAS-stimulated mast cell degranulation in rat RBL-2H3 cells assessed as reduction in beta-hexosaminidase release at 1 mM incubated for 5 mins followed by DNP-HAS stimulation for 1 hr by multiplate reader analysis; type: functional; conditions: RBL-2H3, 1.083 h, time 65 min

Row | Drug metabolism [1] | Drug metabolism [2] | SMILES | inhibition [4] | also measured
1 | Metabolite_Detected | Metabolite_Detected | CCCCC(=O)O[C@]1(C(=O)COC(=O)CCC(=O)Oc2ccc(C(N)=S)cc2)[C@@H](C)C[C@H]2[C@@H]3CCC4=CC(=O)C=C[C@]4(C)[C@@]3(F)[C@@H](O)C[C@@]21C | – | –
2 | – | – | CCCCC(=O)O[C@]1(C(=O)CO)[C@@H](C)C[C@H]2[C@@H]3CCC4=CC(=O)C=C[C@]4(C)[C@@]3(F)[C@@H](O)C[C@@]21C | inactive | –
3 | Metabolite_Notdetected | Metabolite_Notdetected | CCCCC(=O)O[C@]1(C(=O)COC(=O)CCC(=O)Oc2ccc(-c3cc(=S)ss3)cc2)[C@@H](C)C[C@H]2[C@@H]3CCC4=CC(=O)C=C[C@]4(C)[C@@]3(F)[C@@H](O)C[C@@]21C | – | –
4 | Metabolite_Notdetected | Metabolite_Detected | NC(=S)c1ccc(O)cc1 | – | –
5 | Metabolite_Notdetected | Metabolite_Notdetected | Oc1ccc(-c2cc(=S)ss2)cc1 | – | –
6 | Metabolite_Notdetected | Metabolite_Detected | CC1(C)O[C@@H]2C[C@H]3[C@@H]4CCC5=CC(=O)C=C[C@]5(C)[C@@]4(F)[C@@H](O)C[C@]3(C)[C@]2(C(=O)COC(=O)CCC(=O)Oc2ccc(-c3cc(=S)ss3)cc2)O1 | – | –
7 | Metabolite_Notdetected | Metabolite_Notdetected | CC1(C)O[C@@H]2C[C@H]3[C@@H]4CCC5=CC(=O)C=C[C@]5(C)[C@@]4(F)[C@@H](O)C[C@]3(C)[C@]2(C(=O)COC(=O)CCC(=O)Oc2ccc(C(N)=S)cc2)O1 | – | –
8 | – | – | O=C(O)c1cc(=O)c2c(OCC(O)COc3cccc4oc(C(=O)O)cc(=O)c34)cccc2o1 [CROMOLYN] | – | inhibition at 1000 µM [11]: 20%
9 | – | – | CC1(C)O[C@@H]2C[C@H]3[C@@H]4CCC5=CC(=O)C=C[C@]5(C)[C@@]4(F)[C@@H](O)C[C@]3(C)[C@]2(C(=O)CO)O1 | inactive | –

Row | SMILES | Drug metabolism [1] | Drug metabolism [2] | inhibition [4] | also measured
10 | CCCCC(=O)O[C@]1(C(=O)COC(=O)CCC(=O)Oc2ccc(N=C=S)cc2)[C@@H](C)C[C@H]2[C@@H]3CCC4=CC(=O)C=C[C@]4(C)[C@@]3(F)[C@@H](O)C[C@@]21C | Metabolite_Detected | Metabolite_Detected | Active | inhibition [3]: Active; fold change (FC) [5]: 4; fold change (FC) [6]: 4
11 | C=CCSSCC=C [DIALLYLDISULFIDE] | Metabolite_Detected | – | – | –
12 | Oc1ccc(N=C=S)cc1 | Metabolite_Detected | Metabolite_Detected | – | inhibition at 100 µM [7]: 75%; inhibition at 300 µM [8]: 75%; Activity [9]: Active; Activity [10]: Active
13 | CC1(C)O[C@@H]2C[C@H]3[C@@H]4CCC5=CC(=O)C=C[C@]5(C)[C@@]4(F)[C@@H](O)C[C@]3(C)[C@]2(C(=O)COC(=O)CCC(=O)Oc2ccc(N=C=S)cc2)O1 | Metabolite_Detected | Metabolite_Detected | Active | inhibition [3]: Active; fold change (FC) [5]: 4; fold change (FC) [6]: 4

Reference: ChEMBL document CHEMBL4837213, “Hybrids between H2S-donors and betamethasone 17-valerate or triamcinolone acetonide inhibit mast cell degranulation and promote hyperpolarization of bronchial smooth muscle cells” (Eur J Med Chem, 2021)
